From patent US20240368120A1 (Terns Pharmaceuticals, Inc., priority 2023, published 2024)
pEC50: −log10 of the molar value.

Target: T1, human GLP-1R receptor (Homo sapiens, UniProt P43220)
T1 construct: expressed in transfected cells
Experiment: GLP-1R low expression cell assay (cAMP TR-FRET, CHO-K1_hGLP-1Rlow_clone10 cells)
Format: cell-based
Settings: for pEC50: cAMP TR-FRET, 30 min at 25° C.; for Emax: maximum activation relative to control GLP-1 peptide agonist
How it was run: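 Readout is cAMP TR-FRET after 30 min compound stimulation at 25 °C of a low-GLP-1R-expressing CHO-K1 clone (1,000 cells/well), with 10-point 3-fold serial dilutions. Percent activation versus a control GLP-1 peptide, from duplicates, was Hill-fitted to give EC50.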

T1 sequence (P43220 24-463): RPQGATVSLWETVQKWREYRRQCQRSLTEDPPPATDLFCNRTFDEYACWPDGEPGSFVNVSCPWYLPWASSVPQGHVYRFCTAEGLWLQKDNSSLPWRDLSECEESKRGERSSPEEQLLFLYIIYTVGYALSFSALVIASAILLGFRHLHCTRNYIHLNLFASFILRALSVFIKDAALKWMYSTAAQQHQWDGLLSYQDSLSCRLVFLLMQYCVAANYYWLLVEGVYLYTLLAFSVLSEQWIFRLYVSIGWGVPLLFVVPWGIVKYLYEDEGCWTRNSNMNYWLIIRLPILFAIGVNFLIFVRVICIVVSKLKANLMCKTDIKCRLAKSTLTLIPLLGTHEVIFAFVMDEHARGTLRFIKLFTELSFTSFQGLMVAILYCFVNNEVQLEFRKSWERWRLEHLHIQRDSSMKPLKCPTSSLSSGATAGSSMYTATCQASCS

| SMILES | pEC50 | Emax |
| --- | --- | --- |
| Cn1c(CN2CCC(c3cccc(OCc4ccc(C#N)cc4F)n3)CC2)nc2c(OC(C)(C)CF)cc(C(=O)O)cc21 [Compound 160, 2-((4-(6-((4-Cyano-2-fluorobenzyl)oxy)pyridin-2-yl)piperidin-1-yl)methyl)-4-((1-fluoro-2-methylpropan-2-yl)oxy)-1-methyl-1H-benzo[d]imidazole-6-carboxylic acid] | 6.00 to 7.00 | > 85% |
| Cn1c(CN2CCC(c3cccc(OCc4ccc(Cl)cc4F)n3)CC2)nc2c(Cl)cc(C(=O)O)cc21 [Compound 218, 4-chloro-2-((4-(6-((4-chloro-2-fluorobenzyl)oxy)pyridin-2-yl)piperidin-1-yl)methyl)-1-methyl-1H-benzo[d]imidazole-6-carboxylic acid] | 7.00 to 8.00 | > 85% |
| Cn1c(CN2CCC(c3cccc(OCc4ccc(Cl)cc4F)c3)CC2)nc2c(OC(F)F)cc(N3CC(=O)NS3(=O)=O)cc21 [Compound 281, 5-(2-((4-(3-((4-Chloro-2-fluorobenzyl)oxy)phenyl)piperidin-1-yl)methyl)-4-(difluoromethoxy)-1-methyl-1H-benzo[d]imidazol-6-yl)-1,2,5-thiadiazolidin-3-one 1,1-dioxide] | < 6.00 | 50 to 85% |
| Cn1c(CN2CCC(c3cccc(OCc4cc(F)c(C#N)cc4F)n3)CC2)nc2c(OC(F)F)cc(C(=O)O)cc21 [Compound 366, 2-((4-(6-((4-Cyano-2,5-difluorobenzyl)oxy)pyridin-2-yl)piperidin-1-yl)methyl)-4-(difluoromethoxy)-1-methyl-1H-benzo[d]imidazole-6-carboxylic acid] | > 8.00 | > 85% |
| CC(F)(F)c1cc(C(=O)O)cc2c1nc(CN1CCC(c3cccc4c3O[C@@](C)(c3ccc(Cl)cn3)O4)CC1)n2C[C@@H]1CCO1 [Compound 386, 2-((4-((S)-2-(5-Chloropyridin-2-yl)-2-methylbenzo[d][1,3]dioxol-4-yl)piperidin-1-yl)methyl)-4-(1,1-difluoroethyl)-1-(((S)-oxetan-2-yl)methyl)-1H-benzo[d]imidazole-6-carboxylic acid] | 7.00 to 8.00 | > 85% |
| CN(c1nc2c(OC(F)F)cc(C(=O)O)cc2n1C[C@@H]1CCO1)[C@H]1CC[C@H](c2cccc(OCc3ccc(C#N)cc3F)n2)CC1 [Compound 132, 2-(((1r,4S)-4-(6-((4-cyano-2-fluorobenzyl)oxy)pyridin-2-yl)cyclohexyl) (methyl)amino)-4-(difluoromethoxy)-1-(((S)-oxetan-2-yl)methyl)-1H-benzo[d]imidazole-6-carboxylic acid] | > 8.00 | > 85% |
| C[C@]1(c2ccc(Cl)cn2)Oc2cccc(C3CCN(Cc4nc5cc(C(=O)O)cc6c5n4CCO6)CC3)c2O1 [Compound 75, (S)-2-((4-(2-(5-chloropyridin-2-yl)-2-methylbenzo[d][1,3]dioxol-4-yl)piperidin-1-yl)methyl)-3,4-dihydro-5-oxa-1,2a-diazaacenaphthylene-7-carboxylic acid] | < 6.00 | < 25% |
| COc1cc(C(=O)O)cc2c1nc(Cc1ccc(-c3cccc(OCc4ccc(C#N)cc4F)n3)cc1F)n2C [Compound 342, 2-(4-(6-((4-cyano-2-fluorobenzyl)oxy)pyridin-2-yl)-2-fluorobenzyl)-4-methoxy-1-methyl-1H-benzo[d]imidazole-6-carboxylic acid] | > 8.00 | > 85% |
| Cn1c(CN2CCC(c3cncc(OCc4ccc(Cl)cc4F)n3)CC2)nc2c(OC(F)F)cc(C(=O)O)cc21 [Compound 374, 2-((4-(6-((4-Chloro-2-fluorobenzyl)oxy)pyrazin-2-yl)piperidin-1-yl)methyl)-4-(difluoromethoxy)-1-methyl-1H-benzo[d]imidazole-6-carboxylic acid] | 6.00 to 7.00 | > 85% |
| COc1c(F)c(C(=O)O)cc2nc(CN3CCC(c4cccc(OCc5ccc(Cl)cc5F)n4)CC3)n(C)c12 [Compound 338, 2-((4-(6-((4-Chloro-2-fluorobenzyl)oxy)pyridin-2-yl)piperidin-1-yl)methyl)-6-fluoro-7-methoxy-1-methyl-1H-benzo[d]imidazole-5-carboxylic acid] | < 6.00 | 50 to 85% |
